Like-named read-outs stand apart in the source and are kept apart here.
Columns and labels:
[1] = target: CS from Neurospora crassa; set-up: method as in earlier work; settings: competitive inhibitor of CS from Neurospora crassa ref 9; cited from earlier work
CS = test system: CS; set-up: method as in PMID 7559411; settings: very slow substrate of CS ref 10; cited from earlier work
[2] = test system: CS from Streptococcus pneumoniae (SpCS); set-up: method as in PMID 12565943; settings: SpCS ref 12; cited from earlier work
PbCS [3] = target: T1, PbCS (Paracoccidioides brasiliensis, UniProt C1GBW5); set-up: method as in PMID 30348661; settings: PbCS ref 13, cited from earlier work
PbCS [4] = target: T1, PbCS; set-up: method as in PMID 30348661
CS from N. crassa = CS from N. crassa ref 30; cited from earlier work
PbCS [5] = target: T1, PbCS; test: Isothermal titration calorimetry (ITC); settings: single site binding model, 25 °C, pH 8, triplicates, read-out: dissociation constant by ITC
Description: Isothermal titration calorimetry (ITC) was performed on a MicroCal PEAQ-ITC. All ITC experiments were conducted in storage buffer (50 mM NaH2PO4, 150 mM NaCl, pH 8) at 25 °C and a stirring rate of 750 rpm. Titration experiments consisted of 13 injections (first injection: 0.4 µL; duration time: 0.8 s; spacing time: 300 s; 2nd–13th injection: 3 µL; duration time: 6 s; spacing time: 150 s) and were performed in triplicates. The azo-dye PH011669 (500 µM) was loaded into the injection syringe and titrated into the sample cell containing PbCS (25 µM); the reference cell was filled with degassed ddH2O. Dissociation constants were obtained with the MicroCal PEAQ-ITC Analysis Software (Malvern) using the “one set of sites fitting” model.

chorismate synthase (CS) [6] = target: T2, chorismate synthase (CS) (Saccharomyces cerevisiae, UniProt P28777); test: Spectrophotometric titration, CS from Saccharomyces cerevisiae; type: binding; settings: CS from Saccharomyces cerevisiae (yeast)
T2 construct: made in house; host or cells: E. coli

chorismate synthase (CS) [7] = target: chorismate synthase (CS) (Toxoplasma gondii, UniProt O02607); test: Spectrophotometric titration, CS from Toxoplasmodium gondii; type: binding; settings: CS from Toxoplasmodium gondii (protozoon)
chorismate synthase (CS) [8] = target: T3, chorismate synthase (CS) (Capnoides sempervirens, UniProt P27793); test: Spectrophotometric titration, CS from Corydalis sempervirens; type: binding; settings: CS from Corydalis sempervirens (plant)
T3 construct: made in house; host or cells: E. coli

PbCS [9] = target: T1, PbCS; test: Inhibition assay, CS reaction coupled with anthranilate synthase reaction; type: biochemical; settings: 80 μM EPSP, 4 μM PbCS, 37 °C, Hill fit
Description: The influence of PH011669 on the activity of PbCS was tested by forward coupling the CS reaction with the anthranilate synthase reaction. The final reaction solution contained 80 μM EPSP, 4 μM PbCS, 7 µM YcnD, 20 μM anthranilate synthase, 4 mM MgSO4, 10 mM L-glutamine (L-Gln), 30 mM (NH4)2SO4, 1 mM dithiothreitol (DTT) and different concentrations of the inhibitor (0.1–250 µM). The assay was prepared in 10 mM potassium phosphate at pH 7.6 and pipetted into a 96-well plate. The reaction was started by the addition of 500 µM NADPH. PbCS activity could be studied spectrofluorometrically at 37 °C by following the increase in the fluorescence intensity at 390 nm (λex = 340 nm) for 5 min, which correlates with the amount of anthranilate formed in the course of the reaction. The slopes of the initial velocities were determined and plotted as a function of the log of the corresponding PH011669 concentration (triplicates were determined).
To test the inhibitory effect of PH011669 on the activity of CS, we used a coupled assay involving EPSP, CS, YcnD and anthranilate synthase. Our inhibition assay has been used to determine the ability of a drug to reduce the activity of the enzyme. The resulting IC50 value gives the concentration of a drug required for 50% inhibition of the enzymatic activity. […]

chorismate synthase (CS) [10] = target: T4, chorismate synthase (CS) (Aquifex aeolicus, UniProt O66493); test: Spectrophotometric titration, CS from Aquifex aeolicus; type: binding
T4 construct: made in house; host or cells: E. coli

chorismate synthase (CS) [11] = target: chorismate synthase (CS) (Botrytis cinerea, UniProt A0A384JF70); test: Spectrophotometric titration, CS from Botrytis fuckeliana; type: binding; settings: CS from Botrytis fuckeliana (fungus)
chorismate synthase (CS) [12] = target: chorismate synthase (CS) (Candida albicans, UniProt A0A1D8PTK1); test: Spectrophotometric titration, CS from Candida albicans; type: binding; settings: CS from Candida albicans (fungus)
[13] = target: chorismate synthase from Paracoccidioides brasiliensis (PbCS) (Paracoccidioides brasiliensis, UniProt C1GBW5); test: Spectrophotometric titration / binding assay, PbCS
Description: (§1) For the binding studies, PH011669 was dissolved in 50 mM NaH2PO4 and 150 mM NaCl at pH 8, diluted to a final concentration of approximately 10 µM (A580nm ∼0.25; 800 µL), and transferred to a quartz cuvette (with 800 µL of buffer in the reference cuvette). After recording an initial UV-visible absorption spectrum between 300 and 800 nm, 10 µL aliquots of PbCS (∼55 µM) were added, and spectral changes were monitored after each addition. To quantify the binding affinity of PH011669 to PbCS, we plotted the relative absorption changes at 510 nm as a function of the protein concentration in the cuvette[17].

chorismate synthase (CS) [14] = target: T5, chorismate synthase (CS) (Trichormus variabilis, UniProt Q3MFM3); test: Spectrophotometric titration, CS from Anabaena variabilis; type: binding; settings: CS from Anabaena variabilis (cyanobacterium)
T5 construct: made in house; host or cells: E. coli

chorismate synthase (CS) [15] = target: T6, chorismate synthase (CS) (Escherichia coli, UniProt P12008); test: Spectrophotometric titration, CS from Escherichia coli; type: binding
T6 construct: made in house; host or cells: E. coli

chorismate synthase (CS) [16] = target: chorismate synthase (CS) (Methanothermobacter thermautotrophicus, UniProt O26843); test: Spectrophotometric titration, CS from Methanobacterium thermoautotrophicum; type: binding
chorismate synthase (CS) [17] = target: T7, chorismate synthase (CS) (Thermotoga maritima, UniProt Q9WYI2); test: Spectrophotometric titration, CS from Thermotoga marítima; type: binding
T7 construct: made in house; host or cells: E. coli

chorismate synthase (CS) [18] = test: Spectrophotometric titration, CS from Solanum lycopersicum; type: binding; settings: CS from Solanum lycopersicum (plant)
chorismate synthase (CS) [19] = target: T8, chorismate synthase (CS) (Neurospora crassa, UniProt Q12640); test: Spectrophotometric titration, CS from Neurospora crassa; type: binding; settings: CS from Neurospora crassa (fungus)
T8 construct: made in house; host or cells: E. coli
Description: as §1

chorismate synthase (CS) [20] = target: chorismate synthase (CS) (Tetrahymena thermophila, UniProt Q23FV7); test: Spectrophotometric titration, CS from Tetrahymena thermophila; type: binding
chorismate synthase (CS) [21] = target: chorismate synthase (CS) (Staphylococcus aureus, UniProt Q2FYG9); test: Spectrophotometric titration, CS from Staphylococcus aureus; type: binding
chorismate synthase (CS) (Staphylococcus aureus, UniProt Q2FYG9), sequence (Q2FYG9 whole entry): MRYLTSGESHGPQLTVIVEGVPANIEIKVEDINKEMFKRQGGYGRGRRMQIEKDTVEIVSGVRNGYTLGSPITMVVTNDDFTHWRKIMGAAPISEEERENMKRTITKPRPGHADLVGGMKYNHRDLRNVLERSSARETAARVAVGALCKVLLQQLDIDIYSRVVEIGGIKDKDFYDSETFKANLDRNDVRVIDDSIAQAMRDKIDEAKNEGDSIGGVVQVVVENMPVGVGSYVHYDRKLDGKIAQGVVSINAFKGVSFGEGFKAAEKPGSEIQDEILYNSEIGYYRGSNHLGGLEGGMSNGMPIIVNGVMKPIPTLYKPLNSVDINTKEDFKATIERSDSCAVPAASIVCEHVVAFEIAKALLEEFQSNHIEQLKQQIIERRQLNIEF

T1 sequence (C1GBW5 entry or part of it): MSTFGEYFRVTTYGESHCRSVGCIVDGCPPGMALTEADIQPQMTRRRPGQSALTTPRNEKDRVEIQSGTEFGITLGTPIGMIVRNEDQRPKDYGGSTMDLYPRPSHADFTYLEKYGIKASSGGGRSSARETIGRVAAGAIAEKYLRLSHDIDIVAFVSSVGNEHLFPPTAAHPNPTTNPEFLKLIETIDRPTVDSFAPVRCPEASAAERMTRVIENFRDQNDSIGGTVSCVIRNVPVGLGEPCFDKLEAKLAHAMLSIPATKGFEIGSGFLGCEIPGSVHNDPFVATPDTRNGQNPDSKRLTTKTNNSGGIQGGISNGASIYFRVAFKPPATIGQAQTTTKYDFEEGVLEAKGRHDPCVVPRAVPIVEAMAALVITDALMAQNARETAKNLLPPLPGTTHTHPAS
chorismate synthase from Paracoccidioides brasiliensis (PbCS), sequence (C1GBW5 entry or part of it): as above
T8 sequence (Q12640 whole entry): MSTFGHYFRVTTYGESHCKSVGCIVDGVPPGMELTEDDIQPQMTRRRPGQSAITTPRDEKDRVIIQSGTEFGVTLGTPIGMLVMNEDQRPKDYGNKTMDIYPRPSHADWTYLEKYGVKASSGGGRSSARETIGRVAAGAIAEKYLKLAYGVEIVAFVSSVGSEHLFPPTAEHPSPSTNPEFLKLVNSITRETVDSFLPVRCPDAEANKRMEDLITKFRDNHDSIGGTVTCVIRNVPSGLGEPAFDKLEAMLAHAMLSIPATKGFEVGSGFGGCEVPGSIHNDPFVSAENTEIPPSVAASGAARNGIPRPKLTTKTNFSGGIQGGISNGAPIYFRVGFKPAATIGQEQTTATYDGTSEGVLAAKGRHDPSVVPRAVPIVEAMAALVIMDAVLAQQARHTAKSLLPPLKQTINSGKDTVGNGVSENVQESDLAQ
T6 sequence (P12008 whole entry): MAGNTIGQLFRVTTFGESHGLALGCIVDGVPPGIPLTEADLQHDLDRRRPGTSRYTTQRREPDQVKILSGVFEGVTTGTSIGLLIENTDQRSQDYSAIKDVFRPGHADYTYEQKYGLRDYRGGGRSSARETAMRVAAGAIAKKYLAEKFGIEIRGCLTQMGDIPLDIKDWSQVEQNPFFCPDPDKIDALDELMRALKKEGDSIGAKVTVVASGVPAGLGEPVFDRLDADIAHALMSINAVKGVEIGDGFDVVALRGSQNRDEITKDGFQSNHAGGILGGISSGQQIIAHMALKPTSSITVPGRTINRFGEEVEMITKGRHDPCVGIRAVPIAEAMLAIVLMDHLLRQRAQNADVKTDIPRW
T4 sequence (O66493 whole entry): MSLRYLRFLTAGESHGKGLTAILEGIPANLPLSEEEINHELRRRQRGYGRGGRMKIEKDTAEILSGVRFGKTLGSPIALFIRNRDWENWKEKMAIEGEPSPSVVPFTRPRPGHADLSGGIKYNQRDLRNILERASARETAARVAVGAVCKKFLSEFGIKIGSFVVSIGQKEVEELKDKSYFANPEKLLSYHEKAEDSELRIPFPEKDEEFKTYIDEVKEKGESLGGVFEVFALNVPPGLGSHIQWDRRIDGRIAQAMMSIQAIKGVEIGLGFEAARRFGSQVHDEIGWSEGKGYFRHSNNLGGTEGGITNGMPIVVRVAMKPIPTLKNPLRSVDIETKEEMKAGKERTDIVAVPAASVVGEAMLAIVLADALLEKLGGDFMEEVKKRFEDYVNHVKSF
T3 sequence (P27793 58-447): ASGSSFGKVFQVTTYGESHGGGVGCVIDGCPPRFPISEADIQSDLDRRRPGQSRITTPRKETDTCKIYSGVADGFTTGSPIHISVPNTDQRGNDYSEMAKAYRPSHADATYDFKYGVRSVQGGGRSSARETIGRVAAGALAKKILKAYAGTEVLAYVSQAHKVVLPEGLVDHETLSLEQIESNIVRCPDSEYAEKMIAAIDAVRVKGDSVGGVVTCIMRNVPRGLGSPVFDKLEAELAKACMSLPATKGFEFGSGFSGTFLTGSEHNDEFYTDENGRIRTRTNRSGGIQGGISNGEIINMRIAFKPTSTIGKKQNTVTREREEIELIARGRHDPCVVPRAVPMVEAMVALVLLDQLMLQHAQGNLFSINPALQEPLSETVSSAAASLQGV
chorismate synthase (CS) (Tetrahymena thermophila, UniProt Q23FV7), sequence (Q23FV7 entry or part of it): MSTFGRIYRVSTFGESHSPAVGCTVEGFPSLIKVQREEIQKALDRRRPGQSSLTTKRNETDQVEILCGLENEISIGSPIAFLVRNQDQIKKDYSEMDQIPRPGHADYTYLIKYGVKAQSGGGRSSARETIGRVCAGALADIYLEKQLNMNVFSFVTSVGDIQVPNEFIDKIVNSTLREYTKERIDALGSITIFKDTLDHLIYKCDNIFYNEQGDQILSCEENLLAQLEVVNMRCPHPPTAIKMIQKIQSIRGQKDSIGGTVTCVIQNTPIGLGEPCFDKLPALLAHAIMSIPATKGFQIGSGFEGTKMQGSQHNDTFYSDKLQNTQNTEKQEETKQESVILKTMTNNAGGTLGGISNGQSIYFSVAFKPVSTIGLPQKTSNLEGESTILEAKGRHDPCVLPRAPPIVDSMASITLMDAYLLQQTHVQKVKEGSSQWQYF
T5 sequence (Q3MFM3 whole entry): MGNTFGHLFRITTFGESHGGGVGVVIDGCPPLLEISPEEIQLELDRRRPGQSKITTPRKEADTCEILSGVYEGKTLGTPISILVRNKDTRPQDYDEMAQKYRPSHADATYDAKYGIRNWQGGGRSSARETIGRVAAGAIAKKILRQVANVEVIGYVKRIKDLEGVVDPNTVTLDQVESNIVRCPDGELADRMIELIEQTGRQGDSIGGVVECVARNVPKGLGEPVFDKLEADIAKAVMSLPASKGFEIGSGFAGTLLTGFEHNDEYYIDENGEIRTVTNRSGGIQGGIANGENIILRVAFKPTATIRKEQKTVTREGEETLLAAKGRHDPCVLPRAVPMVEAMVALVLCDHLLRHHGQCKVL
T2 sequence (P28777 whole entry): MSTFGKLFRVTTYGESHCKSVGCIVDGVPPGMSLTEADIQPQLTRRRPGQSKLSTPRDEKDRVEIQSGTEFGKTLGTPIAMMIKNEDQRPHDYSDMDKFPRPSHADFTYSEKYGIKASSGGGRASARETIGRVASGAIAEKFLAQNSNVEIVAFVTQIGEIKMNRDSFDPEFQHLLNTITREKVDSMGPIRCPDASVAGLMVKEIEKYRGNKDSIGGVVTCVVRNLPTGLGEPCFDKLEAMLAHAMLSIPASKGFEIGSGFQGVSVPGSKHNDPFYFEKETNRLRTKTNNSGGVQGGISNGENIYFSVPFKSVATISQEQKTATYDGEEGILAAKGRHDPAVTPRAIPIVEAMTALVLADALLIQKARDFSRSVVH
chorismate synthase (CS) (Candida albicans, UniProt A0A1D8PTK1), sequence (A0A1D8PTK1 entry or part of it): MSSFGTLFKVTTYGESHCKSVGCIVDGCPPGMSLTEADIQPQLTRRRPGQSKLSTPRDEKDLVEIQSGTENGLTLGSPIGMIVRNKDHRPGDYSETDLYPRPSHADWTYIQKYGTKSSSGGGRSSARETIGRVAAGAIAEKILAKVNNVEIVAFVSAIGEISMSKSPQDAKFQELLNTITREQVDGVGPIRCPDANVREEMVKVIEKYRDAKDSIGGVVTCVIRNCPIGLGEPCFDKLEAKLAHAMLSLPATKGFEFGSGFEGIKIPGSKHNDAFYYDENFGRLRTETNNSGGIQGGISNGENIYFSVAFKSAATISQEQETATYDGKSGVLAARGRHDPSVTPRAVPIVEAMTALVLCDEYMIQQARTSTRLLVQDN
chorismate synthase (CS) (Methanothermobacter thermautotrophicus, UniProt O26843), sequence (O26843 whole entry): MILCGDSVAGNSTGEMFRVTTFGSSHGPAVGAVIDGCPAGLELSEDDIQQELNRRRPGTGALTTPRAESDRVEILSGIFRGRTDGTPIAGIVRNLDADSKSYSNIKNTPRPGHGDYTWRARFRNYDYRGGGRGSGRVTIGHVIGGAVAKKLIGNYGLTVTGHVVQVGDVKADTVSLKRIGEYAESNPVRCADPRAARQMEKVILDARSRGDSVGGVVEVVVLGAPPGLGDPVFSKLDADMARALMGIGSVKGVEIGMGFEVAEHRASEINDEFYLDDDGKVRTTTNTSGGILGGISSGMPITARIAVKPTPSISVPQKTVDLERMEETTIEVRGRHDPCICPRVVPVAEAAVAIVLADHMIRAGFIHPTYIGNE

Q: For C=C(OC1C(O)C(OP(=O)(O)O)C=C(C(=O)O)[C@H]1F)C(=O)O (stereo partly drawn) [6(R)-6-fluoro-EPSP, (6R)-6-fluoro-5-enolpyruvylshikimate 3-phosphate], which Ki [1] is on record?
A: The Ki was 3 ± 0.3 µM.

Q: With C=C(OC1C(O)C(OP(=O)(O)O)C=C(C(=O)O)[C@@H]1F)C(=O)O (stereo partly drawn) [6(S)-6-fluoro-EPSP, (6S)-6-fluoro-5-enolpyruvylshikimate-3-phosphate] as the compound, how does the “slower turnover than EPSP” value (CS) read?
A: Its value is 200 fold.

Q: Which IC50 [2] does the source give for CCN(CC)c1ccc(/C=C2\Oc3c(ccc(O)c3O)C2=O)cc1 [BF1] here?
A: Its IC50 is 8 µM.

Q: For CCCCCOc1ccc(/C=C2\Oc3c(ccc(O)c3O)C2=O)c(O)c1 [BF2], which IC50 [2] is on record?
A: Its IC50 is 0.22 µM.

Q: For O=C(O)[C@H]1Nc2c(cccc2[N+](=O)[O-])[C@@H]2[C@H](Cl)[C@@H](Sc3ccccc3[N+](=O)[O-])C[C@@H]21 [CP1, (1S,2S,3aS,4S,9bR)-1-chloro-6-nitro-2-(2-nitrophenyl)sulfanyl-2,3,3a,4,5,9b-hexahydro-1H-cyclopenta[c]quinoline-4-carboxylic acid], which IC50 (PbCS [3]) is on record?
A: Its IC50 is 47 µM.

Q: What about the Kd (PbCS [4]; read-out: dissociation constant; PbCS ref 13; cited from earlier work) of the same compound?
A: Its Kd is 64 ± 1 µM.

Q: Which results are given for O=[N+]([O-])c1ccc(/N=N/c2c(S(=O)(=O)O)cc3cc(S(=O)(=O)O)ccc3c2O)c([N+](=O)[O-])c1 [CaCS02, 2-(2,4-dinitrophenylazo)-1-hydroxynaphthalene-3,6-disulfonic acid (nitrazine yellow)]?
A: IC50 (PbCS [3]; read-out: IC50): 29 µM; Kd (PbCS [4]; PbCS ref 13; read-out: dissociation constant; cited from earlier work): 20 µM

Q: With C=C(OC1CC(C(=O)O)=CC(OP(=O)(O)O)C1O)C(=O)O (stereo not drawn) [EPSP, 5-enolpyruvylshikimate-3-phosphate] as the compound, how does the Kd (CS from N. crassa) read?
A: The Kd was 17 µM.

Q: With Nc1cc(S(=O)(=O)O)cc2cc(S(=O)(=O)O)c(/N=N/c3cc([N+](=O)[O-])cc(Cl)c3O)c(O)c12 [PH011669, 5-amino-3-[(E)-(3-chloro-2-hydroxy-5-nitrophenyl)diazenyl]-4-hydroxy-2,7-naphthalenedisulfonic acid] as the compound, how does the Kd (PbCS [5]) read?
A: Its Kd is 3.8 ± 1.8 µM.

Q: What about the Kd (chorismate synthase (CS) [6]) of the same compound?
A: Its Kd is 2.4 ± 0.1 µM.

Q: And the Kd (chorismate synthase (CS) [7])?
A: The Kd was 1.7 µM.

Q: And the Kd (chorismate synthase (CS) [8])?
A: Its Kd is 1 ± 0.1 µM.

Q: And the IC50 (PbCS [9])?
A: Its IC50 is 10 ± 1 µM.

Q: And the Kd (chorismate synthase (CS) [10])?
A: The Kd was 3.2 ± 0.1 µM.

Q: And the Kd (chorismate synthase (CS) [11])?
A: The Kd was 4 ± 0.6 µM.

Q: And the Kd (chorismate synthase (CS) [12])?
A: The Kd was 4.6 ± 0.7 µM.

Q: And the “higher affinity than the initial hit” value ([13]; affinity to PbCS relative to initial hit (CaCS02))?
A: Its value is “ca. 20 fold”.

Q: What about the Kd ([13]; read-out: Kd (dissociation constant), spectrophotometric titration, PbCS) of the same compound?
A: Its Kd is 1.1 µM.

Q: What about the Kd (chorismate synthase (CS) [14]) of the same compound?
A: Its Kd is 1.8 ± 0.1 µM.

Q: And the Kd (chorismate synthase (CS) [15])?
A: Its Kd is 3.7 ± 1 µM.

Q: And the Kd (chorismate synthase (CS) [16])?
A: Its Kd is 2.7 µM.

Q: And the Kd (chorismate synthase (CS) [17])?
A: The Kd was 1.5 µM.

Q: What about the Kd (chorismate synthase (CS) [18]) of the same compound?
A: Its Kd is 1.8 ± 0.1 µM.

Q: And the Kd (chorismate synthase (CS) [19])?
A: The Kd was 3.5 ± 0.1 µM.

Q: What about the Kd (chorismate synthase (CS) [20]) of the same compound?
A: The Kd was 4.4 ± 0.1 µM.

Q: What about the Kd (chorismate synthase (CS) [21]) of the same compound?
A: Its Kd is 3.7 ± 0.1 µM.
